From EPA's ToxValDB 9.5 (doi:10.2903/j.efsa.2009.1167)

Legend:
Mus musculus = details: chronic; duration: 18 months; organ weight
Canidae = details: chronic, Dog Other
[1] = chronic, duration: 2 years, histopathology: nonneoplastic
[2] = reproduction developmental, reproduction

CC(C)(C)[C@@H](O)/C(=C\c1ccc(Cl)cc1Cl)n1cncn1 [Diniconazole-M]
NOAEL (Rattus norvegicus; [1]): 5 mg/kg-day | NOAEL (Rattus norvegicus; developmental, development): 5 mg/kg-day

CC(C)(C)C(=O)C(Oc1ccc(Cl)cc1)n1cncn1 (stereo not given) [Triadimefon]
NOAEL (Rattus norvegicus; acute): 2 mg/kg-day | NOAEL (Rattus norvegicus; subchronic, duration: 13 weeks): 3.4 mg/kg-day

CCCC1COC(Cn2cncn2)(c2ccc(Cl)cc2Cl)O1 (stereo not given) [Propiconazole]
NOAEL (Rattus norvegicus; developmental, development): 30 mg/kg-day | NOAEL (Rattus norvegicus; [2]): > 2.8 mg/kg-day

CCCCC(C#N)(Cn1cncn1)c1ccc(Cl)cc1 (stereo not given) [Myclobutanil]
NOAEL (Rattus norvegicus; [1]): 2.5 mg/kg-day

CC(C1CC1)C(O)(Cn1cncn1)c1ccc(Cl)cc1 (stereo not given) [Cyproconazole]
NOAEL (Rattus norvegicus; chronic, organ weight): 2 mg/kg-day | NOAEL (Rattus norvegicus; developmental, development): 2 mg/kg-day

Fc1ccc([C@@]2(Cn3cncn3)O[C@@H]2c2ccccc2Cl)cc1 [Epoxiconazole]
NOAEL (Mus musculus): 0.8 mg/kg-day | NOAEL (Rattus norvegicus; [2]): 2.3 mg/kg-day

CC(C)(C)C(O)C(Oc1ccc(Cl)cc1)n1cncn1 (stereo not given) [Triadimenol]
NOAEL (Canidae; duration: 2 years): 4 mg/kg-day

C[Si](Cn1cncn1)(c1ccc(F)cc1)c1ccc(F)cc1 [Flusilazole]
NOAEL (Canidae; duration: 1 years): 0.2 mg/kg-day | NOAEL (Rattus norvegicus; reproduction developmental, organ weight): 0.5 mg/kg-day

CC(C)(C)C(O)(CCc1ccc(Cl)cc1)Cn1cncn1 (stereo not given) [Tebuconazole]
NOAEL (Canidae; histopathology: nonneoplastic): 3 mg/kg-day
